{"source": "patent US12714696B2", "about": "“Low dose fluralaner compositions for protection against parasitic invertebrate pest” (VIRBAC, priority 2019, dated 2026)", "test": "Pharmacokinetics after repeated oral administration of 250 μg/kg and 35 μg/kg of fluralaner in dogs after feeding", "assay_type": "in vivo, beagle dogs", "conditions": "for concentration at 168 h / concentration at 192 h / concentration at 216 h / concentration at 240 h / concentration at 384 h / concentration at 528 h / concentration at 624 h / concentration at 720 h / half-life / Cmax: beagle, dog, plasma, po", "method": "The first objective is to obtain the pharmacokinetic parameters after repeated oral administration of […] and 35 μg/kg of fluralaner in dogs after feeding.\nThe second objective is to investigate the pharmacodynamics between the fluralaner plasmatic dose and the effectiveness against ticks. • IVP: Investigational Veterinary Product, is pure Fluralaner+DMSO (250 μg/kg on Days 0 to 3 (0.25 mL/kg), then 35 μg/kg on Days 4 to 9 (0.35 mL/kg), then 600 μg/kg on Day 11) • Control product is DMSO (0.25 mL/kg on Days 0 to 3, then 0.35 mL/kg on Days 4 to 9)\nOn Days 0, 1, 2 and 3, all dogs assigned to group 2 received the Investigational Veterinary Product. On Days 0 to 3 all dogs in group 1 received the control product at a volume equal to the dogs in group 2. Dogs assigned to group 1 received the control product and served as Placebo controls. The quantity of Investigational Veterinary Product and control product administered was calculated according to the dog's individual body weight measured on Day −1. […]\nOn days of administration of pre-Investigational Veterinary Product or Control Product, dogs were fed (the same dog food) approximately half of their normal daily ration 30 minutes to 35 minutes prior to administration. Food consumed by the time of administration was calculated and recorded. The remainder of their normal daily ration was fed immediately after administration.\nThe PK parameters of fluralaner were calculated using a non-compartmental approach.\nThe following rules were applied for the calculation of the PK parameters: • All the plasma concentrations, validated by the bioanalytical laboratory, were used for the PK analysis. • The actual blood sampling times were used throughout. • Concentrations below the Limit of Quantification (LOQ) value were considered as zero from time zero (pre-dose) up to the time at which the first quantifiable concentration above the LOQ value was observed. Concentrations below the LOQ value between two quantifiable concentrations were considered as missing. Trailing concentrations below the LOQ value were not used in calculations.\nCmax the observed maximum concentration in plasma measured after dosing.\nλz the terminal rate constant (λz) was estimated by log-linear regression analysis on data points visually assessed, to be on the terminal log-linear phase. For the slope of the terminal elimination phase to be accepted as reliable, the following criteria were used: • the terminal data points were apparently randomly distributed about a single straight line (on visual inspection), • a minimum of three data points, including the last measured data point and excluding Cmax, were available for the regression.\nt1/2 the terminal plasma half-life (t1/2) was calculated according to the following equation: […]", "key": {"[1]": {"conditions": "oral 250 μg/kg Days 0-3, 35 μg/kg Days 4-9, 600 μg/kg Day 11, dogs, read-out: fluralaner concentration levels, individual animal"}, "[2]": {"conditions": "oral 250/35/600 μg/kg regimen, dogs, n=6, read-out: fluralaner concentration levels, GeoMean"}, "[3]": {"conditions": "oral 250/35/600 μg/kg regimen, dogs, n=6, read-out: fluralaner concentration levels, Maximum"}, "[4]": {"conditions": "oral 250/35/600 μg/kg regimen, dogs, n=6, read-out: fluralaner concentration levels, Mean"}, "[5]": {"conditions": "oral 250/35/600 μg/kg regimen, dogs, n=6, read-out: fluralaner concentration levels, Median"}, "[6]": {"conditions": "oral 250/35/600 μg/kg regimen, dogs, n=6, read-out: fluralaner concentration levels, Minimum"}}, "note": "Where two headings read alike, the source gives them in different places.", "data": [{"smiles": "Cc1cc(C2=NOC(c3cc(Cl)cc(Cl)c3)(C(F)(F)F)C2)ccc1C(=O)NCC(=O)NCC(F)(F)F", "note": "(stereo not drawn) [fluralaner, Fluralaner]", "values": [{"measurement": "concentration at 168 h", "setting": "[1]", "value": 491, "unit": "ng/mL"}, {"measurement": "concentration at 168 h", "setting": "[2]", "value": 517, "unit": "ng/mL"}, {"measurement": "concentration at 168 h", "setting": "[3]", "value": 580, "unit": "ng/mL"}, {"measurement": "concentration at 168 h", "setting": "[4]", "value": 518, "unit": "ng/mL"}, {"measurement": "concentration at 168 h", "setting": "[5]", "value": 520, "unit": "ng/mL"}, {"measurement": "concentration at 168 h", "setting": "[6]", "value": 461, "unit": "ng/mL"}, {"measurement": "concentration at 192 h", "setting": "[1]", "value": 542, "unit": "ng/mL"}, {"measurement": "concentration at 192 h", "setting": "[2]", "value": 508, "unit": "ng/mL"}, {"measurement": "concentration at 192 h", "setting": "[3]", "value": 558, "unit": "ng/mL"}, {"measurement": "concentration at 192 h", "setting": "[4]", "value": 509, "unit": "ng/mL"}, {"measurement": "concentration at 192 h", "setting": "[5]", "value": 520, "unit": "ng/mL"}, {"measurement": "concentration at 192 h", "setting": "[6]", "value": 455, "unit": "ng/mL"}, {"measurement": "concentration at 216 h", "setting": "[1]", "value": 477, "unit": "ng/mL"}, {"measurement": "concentration at 216 h", "setting": "[2]", "value": 515, "unit": "ng/mL"}, {"measurement": "concentration at 216 h", "setting": "[3]", "value": 650, "unit": "ng/mL"}, {"measurement": "concentration at 216 h", "setting": "[4]", "value": 518, "unit": "ng/mL"}, {"measurement": "concentration at 216 h", "setting": "[5]", "value": 485, "unit": "ng/mL"}, {"measurement": "concentration at 216 h", "setting": "[6]", "value": 468, "unit": "ng/mL"}, {"measurement": "concentration at 240 h", "setting": "[1]", "value": 386, "unit": "ng/mL"}, {"measurement": "concentration at 240 h", "setting": "[2]", "value": 469, "unit": "ng/mL"}, {"measurement": "concentration at 240 h", "setting": "[3]", "value": 724, "unit": "ng/mL"}, {"measurement": "concentration at 240 h", "setting": "[4]", "value": 483, "unit": "ng/mL"}, {"measurement": "concentration at 240 h", "setting": "[5]", "value": 422, "unit": "ng/mL"}, {"measurement": "concentration at 240 h", "setting": "[6]", "value": 368, "unit": "ng/mL"}, {"measurement": "concentration at 384 h", "setting": "[1]", "value": 561, "unit": "ng/mL"}, {"measurement": "concentration at 384 h", "setting": "[2]", "value": 693, "unit": "ng/mL"}, {"measurement": "concentration at 384 h", "setting": "[3]", "value": 1000, "unit": "ng/mL"}, {"measurement": "concentration at 384 h", "setting": "[4]", "value": 714, "unit": "ng/mL"}, {"measurement": "concentration at 384 h", "setting": "[5]", "value": 654, "unit": "ng/mL"}, {"measurement": "concentration at 384 h", "setting": "[6]", "value": 523, "unit": "ng/mL"}, {"measurement": "concentration at 528 h", "setting": "[2]", "value": 327, "unit": "ng/mL"}, {"measurement": "concentration at 528 h", "setting": "[3]", "value": 517, "unit": "ng/mL"}, {"measurement": "concentration at 528 h", "setting": "[4]", "value": 339, "unit": "ng/mL"}, {"measurement": "concentration at 528 h", "setting": "[5]", "value": 320, "unit": "ng/mL"}, {"measurement": "concentration at 528 h", "setting": "[6]", "value": 235, "unit": "ng/mL"}, {"measurement": "concentration at 624 h", "setting": "[2]", "value": 254, "unit": "ng/mL"}, {"measurement": "concentration at 624 h", "setting": "[3]", "value": 403, "unit": "ng/mL"}, {"measurement": "concentration at 624 h", "setting": "[4]", "value": 263, "unit": "ng/mL"}, {"measurement": "concentration at 624 h", "setting": "[5]", "value": 244, "unit": "ng/mL"}, {"measurement": "concentration at 624 h", "setting": "[6]", "value": 182, "unit": "ng/mL"}, {"measurement": "concentration at 720 h", "setting": "[1]", "value": 300, "unit": "ng/mL"}, {"measurement": "concentration at 720 h", "setting": "[2]", "value": 262, "unit": "ng/mL"}, {"measurement": "concentration at 720 h", "setting": "[3]", "value": 300, "unit": "ng/mL"}, {"measurement": "concentration at 720 h", "setting": "[4]", "value": 265, "unit": "ng/mL"}, {"measurement": "concentration at 720 h", "setting": "[5]", "value": 280, "unit": "ng/mL"}, {"measurement": "concentration at 720 h", "setting": "[6]", "value": 187, "unit": "ng/mL"}, {"measurement": "half-life", "setting": "oral 250 μg/kg Days 0-3, 35 μg/kg Days 4-9, 600 μg/kg Day 11, dogs, read-out: mean terminal half-life (converted)", "value": 15.5, "unit": "days"}, {"measurement": "Cmax", "setting": "oral 250/35/600 μg/kg regimen, dogs, read-out: Cmax, range", "value": "561 to 1000", "unit": "ng/mL"}, {"measurement": "Cmax", "setting": "oral 250/35/600 μg/kg regimen, dogs, read-out: mean Cmax", "value": 733, "unit": "ng/mL"}, {"measurement": "half-life", "setting": "oral 250/35/600 μg/kg regimen, dogs, read-out: terminal half-life, range", "value": "9.47 to 20.6", "unit": "days"}, {"measurement": "steady state concentrations", "setting": "with the 35 μg/kg per day dose application from Day 4 to Day 9", "value": "reached"}]}]}
